Results on 4 compounds are retold here after PMC10849753, “Antiproliferative activity of platinum(II) and copper(II) complexes containing novel biquinoxaline ligands” (Metallomics: Integrated Biometal Science, 2024).

What all share (type): cell-based, human
The subject of data set [1] is U87 cells. Description: MTT cell viability assay. On the procedure: (§1) Cell culture growth conditions: Selected cancer cell lines from different origins, including human glioblastoma A172 (CRL-1620), LN229 (CRL-2611), U87 (HTB-14) cell lines, human cervix HeLa (ATCC, CCL-2), human breast MDA -231 (HTB-26), human prostate PC-3 (ATCC, CRL-1435), human lung A-549 (CCL-185), and non-cancer Chinese hamster ovary CHOK1 cell line (CCL61) (which was used as control) were purchased from American Type Culture Collection (ATCC, USA). These cultures were grown in Dulbecco's modified Eagle's medium-F12 (DMEM/F12, #D0547, Sigma-Aldrich) supplemented with 5% fetal bovine serum (#10500, Gibco) and 1% antibiotic-antimycotic (#15240, Gibco), and incubated at 37°C and 5% CO2. They were harvested and used for the following assays after reaching 70–80% confluency.
(§2) The used cell lines (A172, LN229, U87, HeLa, MDA-231, PC-3, A549, and CHO-K1) were harvested and seeded (6 × 10^3 cells/well) into the 96-well plates and incubated at 37°C and 5% CO2 for 24 h. After that, the synthesized Cu(II) and Pt(II) complexes, at a concentration range of 6.25 to 100 μM in DMEM-F12, were added to the cell monolayers and incubated at 37°C and 5% CO2 for 24, 48, and 72 h. The dose–response relationships of the synthesized complexes were determined by using an MTT colorimetric agent (3-[4,5-dimethylthiazol-2-yl]-2,5-diphenyltetrazolium bromide, #M5655, Sigma-Aldrich), which is reduced by the mitochondrial enzymes of the metabolically active live cells and converted into a purple formazan product. The MTT stock solution was later dissolved in a phosphate buffer solution (PBS, 5 mg/ml, w/v) and, then, 5 μg/ml of MTT in DMEM was added into each well and incubated at 37°C and 5% CO2 for 4 h. DMSO (#D 8418, Sigma-Aldrich), as a dissolving solution for formazan crystals, was added into each well and placed in a shaker for 2 h. The absorbance at a test wavelength of 570 nm and a reference wavelength of 630 nm was measured on a microplate reader.
(Formazan colour is commonly taken as a measure of viable cells.)

The next data set has as its system PC3 cells. Description: MTT cell viability assay. As for the experimental part:
as §1, §2

Data set [2] relates to HeLa cells. Briefly: Apoptosis, TUNEL assay. Conditions: 50 and 100 μM, 24 h. As for the experimental part:
(§3) The sensitive U87 and HeLa cell lines, selected according to the results of the IC50 values of the examined Cu(II) and Pt(II) complexes, were seeded at a seeding cell number of 5 × 10^4 cells on the 12 mm round cover slips placed in the 24-well plate and incubated at 37°C and 5% CO2 for 24 h. The following day, the Cu(dpq)Cl2, Cu(dtq)Cl2, Pt(dpq)Cl2 and Pt(dtq)Cl2 complexes were freshly prepared and added at a range of 50 and 100 μM to the cell monolayers. After a 24 h incubation time, the cell monolayers were fixed with 4% paraformaldehyde for 15 min at room temperature and, then, the terminal deoxynucleotidyl transferase (TdT)-mediated dUTP nick end labeling (TUNEL) method was applied to detect the DNA damage associated with apoptosis. A commercial assay kit, In Situ Cell Death Detection Kit (Roche, #11767291910), was used for this purpose in accordance to the manufacturer's instructions. The experiment was repeated twice with the tested cell lines, and images were recorded with using a Leica DMI 6000 fluorescence microscope with 40× magnification.

Data set [3] has as its system U87 cells. Description: Apoptosis, TUNEL assay. Conditions: U87, 50 and 100 μM, 24 h. As for the experimental part: as §3
Data set [4] deals with HeLa cells. Description: In vitro comet assay. The following applies: 25 and 50 μM, 24 h. On the procedure:
(§4) Commet assay was performed with U87 and HeLa cell lines (4 × 10^4 cells/well) to detect DNA damage in the individual eukaryotic cells, where 25 or 50 μM Cu(II) or Pt(II) complexes were added to the cells and incubated for 24 h. Subsequently, the comet assay was performed as described before.[31] The DNA damage was evaluated by calculating the DNA tail percentage using the following equation: DNA tail % = 100× tailing DNA density/cell DNA density. The assay was repeated twice, and 50 individual cells were involved for each treatment.

The test system of data set [5] is U87 cells. Briefly: In vitro comet assay. The following applies: U87, 25 and 50 μM, 24 h. On the procedure: as §4
Data set [6] relates to HeLa cells. Description: In vitro scratch wound healing (cell migration). Conditions: 6.25 and 12.5 μM, 24, 48, and 72 h. As for the experimental part:
In vitro scratch wound healing experiments were carried out with HeLa cell lines (3 × 10^4 cells/insert), which were seeded into 6-well plates. When they reached 80–90% confluence, scratches were created using AutoScratch (BioTek) in a straight line. The same Cu(II) or Pt(II) complex concentrations (6.25 or 12.5 μM) were used and incubated in the presence of 5% CO2 at 37°C in a humidified incubator for 24, 48, and 72 h. Images were obtained at the beginning of the exposure (time 0), and repeated at the end of 24, 48, and 72 h incubation periods.

Data set [7] relates to A172, LN229, U87, A549, Hela, PC-3, and MDA-231 cells. Briefly: ROS production, DCFDA assay, all used cell lines. Conditions: all used cell lines; 6.25 to 100 μM, 24 h. As for the experimental part: (§5) The reactive oxygen species (ROS) formation on the selected cell lines upon exposure to the synthesized Cu(II) and Pt(II) complexes was investigated using the oxidation-sensitive dye, 2ʹ,7ʹ-dichlorofluorescein diacetate (DCFDA, #D6883 Sigma-Aldrich). The cell lines (A172, LN229, U87, HeLa, MDA-231, PC-3, A549, and CHO-K1) were seeded (6 × 10^3 cells/well) into the 96-well plates and incubated at 37°C and 5% CO2 for 24 h. After that, the Cu(II) and Pt(II) complexes, at a concentration range of 6.25 to 100 μM, were added to the cell monolayers. Hydrogen peroxide (H2O2), at concentrations from 50 to 500 μM, was utilized as a positive control. The following day, 5 μM of DCFDA in PBS was added to the cell monolayers and, then, the plate was incubated for 30–45 min. Consequently, the fluorescence intensity was measured with 485 nm excitation and 535 nm emission wavelengths using a microplate reader. The fluorescence values of each treatment were normalized to the negative control, including only growth medium without any treatment. The assay was repeated in triplicate.

Another data set relates to prostate PC3 cells. Briefly: ROS production, DCFDA assay. Conditions: 6.25 to 100 μM, 24 h. As for the experimental part: as §5
Data set [8] relates to lung A549, cervix HeLa, and breast MD-A231 cells. Briefly: ROS production, DCFDA assay. Conditions: MDA-231, 6.25 to 100 μM, 24 h, vs negative control. As for the experimental part: as §5

Where only a bound is given, the exact number is not on record here.

The IC50 is the concentration that inhibits the measured activity by half. As for `[Cl][Cu][Cl].c1ccc(-c2nc3ccc(-c4ccc5nc(-c6ccccn6)c(-c6ccccn6)nc5c4)cc3nc2-c2ccccn2)nc1` [Cu(tpbq)Cl2], the IC50 with U87 cells [1] (U87, 24 h exposure) was 79.5 ± 26.4 µM; in the data set with U87 cells [1] (U87, 48 h exposure), 5.49 ± 0.01 µM; with U87 cells [1] (U87, 72 h exposure), 13.5 ± 6.06 µM; in the data set with PC3 cells (PC3, 24 h exposure) it was greater than 100 µM; with PC3 cells (PC3, 48 h exposure), greater than 100 µM; with PC3 cells (PC3, 72 h exposure), greater than 100 µM. In addition, the “apoptosis (DNA fragmentation, TUNEL)” value in the data set with HeLa cells [2] and in the data set on U87 cells [3] was “none of which induced any apoptosis” each time.

In the case of `[Cl][Cu][Cl].c1csc(-c2nc3ccc(-c4ccc5nc(-c6cccs6)c(-c6cccs6)nc5c4)cc3nc2-c2cccs2)c1` [Cu(ttbq)Cl2], the “genotoxicity (DNA damage, comet)” value in the data set on HeLa cells [4] is “only genotoxic on the Hela cells at a high concentration (50 μM)”; in the data set on U87 cells [5], “caused DNA damage on the U87 cells at both concentrations”. Moreover, in the data set on HeLa cells [6], the “migration of HeLa cells toward the scratch zone” value (from here on “migration”) is “declined”. Besides, the ROS formation result was “highest increase in the level of ROS formation” in data set [7] and “no formation” with prostate PC3 cells. For the same compound, the “increase of ROS production” value in data set [8] was roughly 2 fold. In addition, the concentration for half-maximal inhibition (IC50) amounted to 31.2 ± 0.43 µM in the data set on U87 cells [1] (U87, 24 h exposure); 2.95 ± 0.97 µM in the data set on U87 cells [1] (U87, 48 h exposure); 5.75 ± 0.03 µM in the data set with U87 cells [1] (U87, 72 h exposure); 65.8 ± 5.35 µM in the data set on PC3 cells (PC3, 24 h exposure); 75.5 ± 3.16 µM with PC3 cells (PC3, 48 h exposure); 62.3 ± 4.02 µM with PC3 cells (PC3, 72 h exposure). The entries for the “apoptosis (DNA fragmentation, TUNEL)” value with HeLa cells [2] and with U87 cells [3] were “none of which induced any apoptosis” and “apoptotic potential of the U87 cells was observed”, respectively.

For `[Cl][Pt][Cl].c1ccc(-c2nc3ccc(-c4ccc5nc(-c6ccccn6)c(-c6ccccn6)nc5c4)cc3nc2-c2ccccn2)nc1` [Pt(tpbq)Cl2], the “migration” value in the data set on HeLa cells [6] is “declined”. Further, in data set [7], the ROS formation entry was “did not induce any ROS formation”. For the same compound, the IC50 in the data set with U87 cells [1] (U87, 24 h exposure) is 58.4 ± 11.8 µM; in the data set on U87 cells [1] (U87, 48 h exposure), 34.7 ± 2.16 µM; in the data set on PC3 cells (PC3, 24 h exposure), greater than 100 µM; in the data set on PC3 cells (PC3, 48 h exposure), greater than 100 µM; in the data set with PC3 cells (PC3, 72 h exposure) it was greater than 100 µM. Also, the “apoptosis (DNA fragmentation, TUNEL)” value is listed as “none of which induced any apoptosis” in the data set with HeLa cells [2] and “apoptotic potential of the U87 cells was observed” in the data set with U87 cells [3].

Take `[Cl][Pt][Cl].c1csc(-c2nc3ccc(-c4ccc5nc(-c6cccs6)c(-c6cccs6)nc5c4)cc3nc2-c2cccs2)c1` [Pt(ttbq)Cl2]: the “genotoxicity (DNA damage, comet)” value in the data set with U87 cells [5] is recorded as “caused DNA damage on the U87 cells at both concentrations”. Further, the “migration” value with HeLa cells [6] is given as “declined”. Moreover, the ROS formation result with prostate PC3 cells is “no formation”. For the same compound, the “increase of ROS production” value in [8] is roughly 2 fold. Moreover, the IC50 was greater than 100 µM with U87 cells [1] (U87, 24 h exposure); 9.24 ± 4.16 µM with U87 cells [1] (U87, 48 h exposure); 5.95 ± 1.68 µM in the data set with U87 cells [1] (U87, 72 h exposure); greater than 100 µM in the data set on PC3 cells (PC3, 24 h exposure); greater than 100 µM in the data set with PC3 cells (PC3, 48 h exposure); greater than 100 µM with PC3 cells (PC3, 72 h exposure). Further, the “apoptosis (DNA fragmentation, TUNEL)” value in the data set with HeLa cells [2] is “apoptosis on HeLa cells was only observed”; with U87 cells [3] it was “none of which induced any apoptosis”.
